Reference: ChEMBL document CHEMBL4266024, “Phytochemical Study of Senecio volckmannii Assisted by CASE-3D with Residual Dipolar Couplings and Isotropic 1H/13C NMR Chemical Shifts” (2018)

Experiments:
Format in all cases: functional
HeLa = experiment: Growth inhibition of human HeLa cells after 48 hrs by sulforhodamine B assay
HBL-100 = experiment: Growth inhibition of human HBL100 cells after 48 hrs by sulforhodamine B assay; conditions: HBL-100, 48 h
WiDr = experiment: Growth inhibition of human WiDr cells after 48 hrs by sulforhodamine B assay
T47D = experiment: Growth inhibition of human T47D cells after 48 hrs by sulforhodamine B assay
SW1573 = experiment: Growth inhibition of human SW1573 cells after 48 hrs by sulforhodamine B assay; conditions: SW1573, 48 h
A549 = experiment: Growth inhibition of human A549 cells after 48 hrs by sulforhodamine B assay; conditions: A549, 48 h

SMILES	GI50 (HeLa) [µM]	GI50 (T47D) [µM]	GI50 (SW1573) [µM]	GI50 (A549) [µM]	GI50 (HBL-100) [µM]	GI50 (WiDr) [µM]
CC(C)=C1C[C@@]2(C)C(=CC1=O)[C@H](O)CC[C@@H]2C	> 10	> 10	> 10	> 10	> 10	> 10
C[C@H]1CCCC2=CC(=O)[C@H](C(C)(C)O)C[C@@]21C	> 10	> 10	> 10	> 10	> 10	> 10
CC(=O)C1=C[C@@]2(C)C(=CC1=O)CCC[C@@H]2C (relative stereo)	> 10	> 10	> 10	> 10	> 10	> 10
CC(C)=C1C[C@@]2(C)C(=CC1=O)CCC[C@@H]2C	> 10	> 10	> 10	> 10	> 10	> 10

Now from value to molecule, other results behind:

GI50 (HeLa) [µM]	GI50 (T47D) [µM]	GI50 (SW1573) [µM]	GI50 (A549) [µM]	SMILES	GI50 (HBL-100) [µM]	GI50 (WiDr) [µM]
> 10	> 10	> 10	> 10	CC(C)=C1C[C@@]2(C)[C@H](CCC(=O)[C@@H]2C)CC1=O (relative stereo)	> 10	> 10
> 10	> 10	> 10	> 10	CC1=C2C[C@@]3(C)[C@H](C[C@@]2(O)OC1=O)C(=O)CC[C@@H]3C	> 10	> 10
> 10	> 10	> 10	> 10	C[C@H]1CC[C@@H](O)C2=CC(=O)C(C(C)(C)O)=C[C@@]21C (relative stereo)	> 10	> 10
> 10	> 10	> 10	> 10	C[C@H]1CCCC2=CC(=O)C(C(C)(C)O)=C[C@@]21C	> 10	> 10
> 10	> 10	> 10	> 10	CC(C)=C1C[C@@]2(C)C(=CC1=O)[C@@H](O)CC[C@@H]2C	> 10	> 10
